In general, EC50 refers to the concentration that produces a half-maximal response.

The source made the active and inactive calls.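 The calls were made as follows: active = response above 60% of the acetylcholine maximum at the M5 muscarinic receptor, read as positive allosteric modulation; inactive = the rest.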

In one test the target is Muscarinic acetylcholine receptor M3 (Homo sapiens) (UniProt P20309). Nature of the test: human M3 receptor positive allosteric modulators, dose response, selectivity assay for M5 PAM project, cell-based, CHO-K1 hM3, calcium flux, ACh EC20 (AID 743115). The following applies: CHO-K1 hM3, calcium flux Fluo-4, ACh EC20 potentiation. On the technique in general: Calcium flux is commonly read through the fluorescence of an indicator in the cells.
Muscarinic acetylcholine receptor M3 (Homo sapiens), sequence (P20309 whole entry, looked up): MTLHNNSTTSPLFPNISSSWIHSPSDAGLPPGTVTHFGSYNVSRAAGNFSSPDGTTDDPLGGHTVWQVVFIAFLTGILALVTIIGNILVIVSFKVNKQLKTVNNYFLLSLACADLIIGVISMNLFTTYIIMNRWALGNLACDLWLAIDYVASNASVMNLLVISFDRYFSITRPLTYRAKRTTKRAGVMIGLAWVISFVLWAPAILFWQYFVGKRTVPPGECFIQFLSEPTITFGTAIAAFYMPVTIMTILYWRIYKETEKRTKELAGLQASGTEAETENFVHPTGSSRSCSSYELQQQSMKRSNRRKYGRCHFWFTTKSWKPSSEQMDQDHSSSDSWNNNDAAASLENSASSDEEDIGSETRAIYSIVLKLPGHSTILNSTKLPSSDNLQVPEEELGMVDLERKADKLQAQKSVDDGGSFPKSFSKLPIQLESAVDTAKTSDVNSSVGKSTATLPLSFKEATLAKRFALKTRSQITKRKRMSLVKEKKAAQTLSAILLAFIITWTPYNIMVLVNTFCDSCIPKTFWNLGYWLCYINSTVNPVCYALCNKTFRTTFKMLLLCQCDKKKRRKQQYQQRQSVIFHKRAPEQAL
Regarding `CCN(C(=O)C1CCN(S(=O)(=O)c2ccc3[nH]ncc3c2)CC1)[C@H](C)c1ccccc1`, the EC50 was 2170 nM.

As to `CCN(Cc1ccccc1C(F)(F)F)C(=O)C1CCN(S(=O)(=O)c2ccc3cn[nH]c3c2)CC1`, the EC50 is 4670 nM. Consider `CCN(Cc1ccccc1C(F)(F)F)C(=O)C1(F)CCN(S(=O)(=O)c2ccc3[nH]ncc3c2)CC1`, for which the EC50 was 1770 nM.

For the compound `CCN(Cc1ccccc1Cl)C(=O)C1CCN(S(=O)(=O)c2ccc3cn[nH]c3c2)CC1`, the EC50 is 2890 nM. For the compound `CCN(Cc1ccccc1C(F)(F)F)C(=O)C1CCN(S(=O)(=O)c2ccc3[nH]ncc3c2)CC1`, the EC50 is 2080 nM. For `CCN(Cc1ccccc1Cl)C(=O)C1CCN(S(=O)(=O)c2ccc3[nH]ncc3c2)CC1`, the EC50 was 520 nM.

Still in this test, the particulars now being: CHO-K1 hM3, calcium flux Fluo-4, ACh EC20 potentiation; at 30 µM (top of the series).
Take `CCN(Cc1ccccc1)C(=O)C1CCN(S(=O)(=O)c2ccc(OC)cc2)CC1`: the “% ACh max response” value was “inactive”. Take `CCN(C(=O)C1CCN(S(=O)(=O)c2ccc(OC)cc2)CC1)[C@H](C)c1ccccc1`: the “% ACh max response” value was “inactive”. Consider `CCN(Cc1ccccc1)C(=O)C1CCN(S(=O)(=O)c2ccc3c(c2)OCCO3)CC1`, for which the “% ACh max response” value is “inactive”.

The values are drawn from PubChem BioAssay AID743115 (Vanderbilt Specialized Chemistry Center, 2013).
